Source: US12630633B2, “Antibody molecules to PD-1 and uses thereof” (Novartis AG, priority 2015, dated 2026)
Where two headings read alike, the source gives them in different places.

What was measured:
BAF3-PDGFRβ = assay: kinase transfected BaF3 proliferation assay, BAF3-PDGFRβ; details: Mus musculus, BaF3, read-out: Cellular EC50 BAF3-PDGFRβ
[1] = system: all other BaF3 cell lines; assay: kinase transfected BaF3 proliferation assays, all other BaF3 cell lines; details: Mus musculus, BaF3, read-out: Cellular EC50 all other BaF3 cell lines
[2] = system: human T cell proliferation; details: cited from earlier work
[3] = continuous daily dosing, transaminases, rats; assay type: in vivo
MC38 [4] = assay: MC38 syngeneic colorectal cancer model, Compound A15 with anti-PD-1; assay type: in vivo; details: preclinical data
MNFS-60 = assay: anti-proliferative effect on M-CSF dependent cell line MNFS-60
[5] = continuous daily dosing, transaminases, monkeys; assay type: in vivo
glioblastoma = details: cited from earlier work
PD-L1 gene = details: cited from earlier work
[6] = system: class I, IIa, IIIb, and IV isoforms (HDAC); details: majority of class I; cited from earlier work
MC38 [7] = assay: MC38 murine syngeneic tumor model, panobinostat with anti-PD-1; assay type: in vivo
T lymphocytes [8] = assay: Compound A21 effects on T lymphocytes in vitro; assay type: cell-based
MC38 [9] = assay: MC38 murine syngeneic tumor model, Compound A21 with anti-PD-1; assay type: in vivo, C57B1/6 mice; details: Compound A21 100 mg/kg orally once weekly (split 50 mg/kg b.i.d.), anti-PD-1 10 mg/kg IV once weekly
Procedure: C57B1/6 mice were implanted with 1×10^6 MC38 cells/mouse. Vehicle and Compound A21 (50 mg/kg orally twice daily QW) were given for four doses, starting on day 4 post-tumor implant. Isotype and anti-mouse PD-1 were given 10 mg/kg IV QW.

T lymphocytes [10] = assay: T lymphocyte proliferation and cytokine production in vitro; assay type: cell-based
[11] = system: PD-1-positive CD4+ and CD8+ lymphocytes; details: 5 mg per week, cited from earlier work
[12] = system: S6 kinase (S6K) phosphorylation; details: predicted, cited from earlier work
EGFR mutant NSCLC = assay: Compound A40 in EGFR mutant NSCLC patients; assay type: in vivo, human
xenografted tumors = details: cited from earlier work
AML = details: cited from earlier work
[13] = system: S6 kinase (S6K) phosphorylation; details: predicted by modeling, cited from earlier work
[14] = system: PD-1-positive CD4+ and CD8+ lymphocytes; details: 5 mg per week, elderly subjects; cited from earlier work
metastatic breast cancer = details: phase III, cited from earlier work
CT26 = details: cited from earlier work
[15] = system: KRAS-mutant CT26 colorectal tumor; details: monotherapy, CT26 model; cited from earlier work
metastatic TNBC = details: Keynote-012; cited from earlier work
[16] = 0.5 mg daily dosing regimen, over the dosing interval

Compound: CNC(=O)c1cc(Oc2ccc3nc(N[C@@H]4CCCC[C@H]4O)sc3c2)ccn1 [Compound A15]
- EC50 (BAF3-PDGFRβ): ≥ 2 µM
- EC50 [1]: > 10 µM
- suppressive function of tumor-educated monocytes on CD8+ and CD4+ T cells ([2]; monocytes co-cultured with neuroblastoma cell lines): inhibit the suppressive function
- potential of myeloid cells to stimulate human T cell proliferation ([2]; neuroblastoma (Mao et al. 2016)): recovered the potential of myeloid cells to stimulate human T cell proliferation
- transaminases [3]: transaminases elevation
- once-a-week (Q1W) versus daily dose, TAMs depletion and anti-tumor activity (MC38 [4]): performs at least as well as the daily dose
- EC50 (MNFS-60; read-out: EC50 anti-proliferative effect, MNFS-60, M-CSF dependent proliferation): < 0.071 µM
- EC50 (MNFS-60; read-out: EC50 anti-proliferative effect, MNFS-60; M-CSF dependent proliferation): 0.071 µM
- transaminases [5]: transaminases elevation
- established tumors and survival (glioblastoma; 200 mg/kg daily, genetic mouse model of glioblastoma): induce regression of established tumors and increase survival
- xenograft growth (glioblastoma; 200 mg/kg daily, proneural glioblastoma-derived xenografts): slow the growth
- M2-type macrophages (glioblastoma; animal models of glioma): reduction and re-programming of M2-type macrophages

Compound: Cc1[nH]c2ccccc2c1CCNCc1ccc(/C=C/C(=O)NO)cc1 [Compound A19, Panobinostat]
- expression of the PD-L1 gene (PD-L1 gene; melanoma cell lines, cultured melanoma biopsy material, tumor-bearing mice): enhanced expression of the PD-L1 gene
- responses to treatment with a PD-1 inhibitor (PD-L1 gene; mice): modestly improved responses
- inhibition of HDAC activity [6]: highly effective at inhibiting the HDAC activity of the majority of class I, IIa, IIIb, and IV isoforms at low nanomolar concentrations
- animals achieving CRs (MC38 [7]; panobinostat 12 mg/kg every other day, anti-PD1 10 mg/kg IV once weekly): two of ten
- body weight (MC38 [7]; recovery after dosing of panobinostat was completed): Some reduction in body weight

Compound: CN[C@@H](C)C(=O)N[C@H](C(=O)N1CCC[C@H]1c1nc(C(=O)c2ccc(F)cc2)cs1)C1CCCCC1 [Compound A21]
- IFNgamma (T lymphocytes [8]): induced
- production of IL-10 (T lymphocytes [8]): suppressed
- proliferation of T lymphocytes (T lymphocytes [8]): stimulated
- complete responses (CRs) (MC38 [9]): neither single agent treatment yielded any CRs
- IFNgamma (T lymphocytes [10]): induced IFNgamma
- production of IL-10 (T lymphocytes [10]): suppressed production of IL-10
- proliferation of T lymphocytes (T lymphocytes [10]): stimulated proliferation of T lymphocytes
- tolerability (1800 mg in combination with paclitaxel): poorly tolerated
- rate of pathological complete response of TNBC (with paclitaxel, clinical data): increased the rate of pathological complete response

Compound: COC1CC2CCC(C)C(O)(O2)C(=O)C(=O)N2CCCCC2C(=O)OC(C(C)CC2CCC(OCCO)C(OC)C2)CC(=O)C(C)/C=C(/C)C(O)C(OC)C(=O)C(C)CC(C)/C=C/C=C/C=C\1C (centres unmarked) [Compound A36, Everolimus]
- percentage of PD-1-positive CD4+ and CD8+ lymphocytes ([11]; compared to placebo): reducing the percentage of PD-1-positive CD4+ and CD8+ lymphocytes
- response to an influenza vaccine ([11]; elderly subjects): enhancing the response to an influenza vaccine
- inhibition of S6K phosphorylation [12, 16]: about 38%
- inhibition of S6K phosphorylation ([12]; 5 mg weekly dosing regimen): more than 50%
- inhibition of mTOR-mediated S6K phosphorylation ([12]; 20 mg weekly dosing regimen): almost completely

Compound: Cc1cc(C(=O)Nc2nc3cccc(Cl)c3n2[C@@H]2CCCCN(C(=O)/C=C/CN(C)C)C2)ccn1 [Compound A40]
- efficacy (EGFR mutant NSCLC): has shown efficacy

Compound: O=C(/C=C/c1ccc2ccc(C(F)(F)F)cc2n1)c1ccncc1 [PFK-158, (E)-1-(pyridin-4-yl)-3-(7-(trifluoromethyl)quinolin-2-yl)-prop-2-en-1-one]
- antitumor activity (xenografted tumors): exhibit antitumor activity
- 18FDG uptake (xenografted tumors; xenografted tumors): reduce

Compound: Nc1ncn([C@H]2C[C@H](O)[C@@H](CO)O2)c(=O)n1 [decitabine, 5-aza-2′-deoxycytidine]
- complete remission rate (CR+CRp) (AML; in vivo): 17.8%
- median Overall Survival (OS) (AML; intent-to-treat population): 7.7 months

Compound: CO[C@H]1C[C@@H]2CC[C@@H](C)[C@@](O)(O2)C(=O)C(=O)N2CCCC[C@H]2C(=O)O[C@H]([C@H](C)C[C@@H]2CC[C@@H](OCCO)[C@H](OC)C2)CC(=O)[C@H](C)/C=C(\C)[C@@H](O)[C@@H](OC)C(=O)[C@H](C)C[C@H](C)/C=C/C=C/C=C/1C [everolimus]
- inhibition of S6K phosphorylation [13, 16]: about 38%
- inhibition of S6K phosphorylation ([13]; 5 mg weekly dosing regimen): more than 50%
- inhibition of mTOR-mediated S6K phosphorylation ([13]; 20 mg weekly dosing regimen): almost completely
- immune effect [14]: immunostimulatory

Compound: CC(=O)O[C@H]1C(=O)[C@@]2(C)[C@H]([C@H](OC(=O)c3ccccc3)[C@]3(O)C[C@H](OC(=O)[C@H](O)[C@@H](NC(=O)c4ccccc4)c4ccccc4)C(C)=C1C3(C)C)[C@]1(OC(C)=O)CO[C@@H]1C[C@@H]2O [traditional paclitaxel, (2α,4α,5β,7β,10β,13α)-4,10-Bis(acetyloxy)-13-{[(2R,3S)-3-(benzoylamino)-2-hydroxy-3-phenylpropanoyl]oxy}-1,7-dihydroxy-9-oxo-5,20-epoxytax-11-en-2-yl benzoate]
- ORR (metastatic breast cancer; first and second line or beyond): 19%
- TTP (metastatic breast cancer): 16.9 weeks

Compound: CC(=O)Nc1cccc(-n2c(=O)n(C3CC3)c(=O)c3c(Nc4ccc(I)cc4F)n(C)c(=O)c(C)c32)c1 [trametinib, N-(3-{3-cyclopropyl-5-[(2-fluoro-4-iodophenyl)amino]-6,8-dimethyl-2,4,7-trioxo-3,4,6,7-tetrahydropyrido[4,3-d]pyrimidin-1(2H)-yl}phenyl)acetamide]
- CD4+ T cells in tumor tissue (CT26; CT26, treatment for seven days): significant increases of CD4+ T cells
- tumor infiltrating lymphocytes (TILs) (CT26; CT26): increases the numbers of tumor infiltrating lymphocytes (TILs)
- CD4+ tumor infiltrating lymphocytes (TILs) [15]: increased
- prevalence of CD8+ TILs [15]: did not negatively affect

Compound: pembrolizumab
- responses, patients (metastatic TNBC): five of 27
